{"source": "patent US8822531B2", "about": "“Honokiol analogs and their use in treating cancers” (priority 2007, dated 2014)", "tested_on": "tumor cells", "assay": "Tumor volume in nude mice injected subcutaneously with tumor cells, treated with honokiol diepoxide", "type": "in vivo", "conditions": "40 mg/kg daily intraperitoneally", "protocol": "Nude mice were injected subcutaneously with approximately one million tumor cells. Once tumors became visible, they were treated with 40 mg/kg daily of honokiol diepoxide. The compound was reconstituted in 100 microliters of ethanol and diluted with 900 microliters of 20% Intralipid, and 0.3 ml of this mixture was injected intraperitoneally daily. Tumors were measured with vernier calipers, and tumor volume was calculated using the formula (width^2×length)0.52, where width is the smallest dimension, 2 represents squared, and […].", "note": "Where “and” joins values, the source holds several entries; their conditions need not be identical. Equal values may be shown once."}
{"compound": "Oc1ccc(-c2cc(CC3CO3)ccc2O)cc1CC1CO1", "note": "(stereo not shown) [Honokiol Epoxide, honokiol diepoxide]", "values": [{"measurement": "Average (tumor volume)", "setting": "group average, in mm³ (unit assumed)", "result": 433.3632}, {"measurement": "Tumor Volume", "setting": "individual animal, volume = (width^2 x length) x 0.52, 40 mg/kg, in mm³ (unit assumed)", "result": "385.2 and 914.8568 and 0"}, {"measurement": "W (tumor width)", "setting": "individual animal, vernier calipers, 40 mg/kg", "result": "8.59 and 11 and 0"}, {"measurement": "L (tumor length)", "setting": "individual animal, vernier calipers, 40 mg/kg, in mm (unit assumed)", "result": "10.04 and 14.54 and 0"}]}
